experiment: Calculation of the molar extinction coefficient (absorption spectrum in ethanol); assay type: physicochemical; conditions: absorbance at 790 nm, 5 μM in ethanol, optical path length 1 cm
Protocol: An ICG lipid solution, prepared by the dissolution of the particular ICG lipid derivative or ICG in ethanol to provide 5 μM in each case, was introduced into a cuvette with an optical path length of 1 cm, and the absorption spectrum at 230 to 1000 nm was measured using an Infinite M200 (Tecan). The absorption spectra in FIG. 5 were provided by subtracting the absorption spectra of ethanol from the absorbance at each wavelength.
The molar concentration used in the calculation of the molar extinction coefficient was itself calculated using a purity of 100% for the ICG lipid derivative and using the nonsalt form.

| Compound | molar extinction coefficient ε |
| --- | --- |
| CC1(C)C(/C=C/C=C/C=C/C=C2/N(CCCCS(=O)(=O)[O-])c3ccc4ccccc4c3C2(C)C)=[N+](CCCCS(=O)(=O)[O-])c2ccc3ccccc3c21.[Na+] [ICG, Indocyanine green, reference compound] | 208980 L/mol/cm |
| CCCCCCCC/C=C\CCCCCCCC(=O)OCC(COP(=O)(O)OCCNC(=O)CCN1/C(=C/C=C/C=C/C=C/C2=[N+](CCCCS(=O)(=O)[O-])c3ccc4ccccc4c3C2(C)C)C(C)(C)c2c1ccc1ccccc21)OC(=O)CCCCCCC/C=C\CCCCCCCC (centres unmarked) [ICG-DOPE, 4-(2-((1E,3E,5E,7E)-7-(3-(3-((2-(((2,3-bis(oleoyloxy)propoxy)oxidophosphoryl)oxy)ethyl)amino)-3-oxopropyl)-1,1-dimethyl-1,3-dihyro-2H-benzo[e]indol-2-ylidene)hepta-1,3,5-trien-1-yl)-1,1-dimethyl-1H-benzo[e]indol-3-ium-3-yl)butane-1-sulfonate, reference compound] | 165860 L/mol/cm |
| CCCCCCCC/C=C\CCCCCCCC(=O)OCC(COP(=O)([O-])OCCNC(=O)CC[N+]1=C(/C=C/C=C/C=C/C=C2/N(CCC(=O)NCCOP(=O)(O)OCC(COC(=O)CCCCCCC/C=C\CCCCCCCC)OC(=O)CCCCCCC/C=C\CCCCCCCC)c3ccc4ccccc4c3C2(C)C)C(C)(C)c2c1ccc1ccccc21)OC(=O)CCCCCCC/C=C\CCCCCCCC (centres unmarked) [ICG-diDOPE, 2-(3-(2-((1E,3E,5E,7E)-7-(3-(3-((2-(((2,3-bis(oleoyloxy)propoxy)(hydroxy)phosphoryl)oxy)ethyl)amino)-3-oxopropyl)-1,1-dimethyl-1,3-dihydro-2H-benzo[e]indol-2-ylidene)hepta-1,3,5-trien-1-yl)-1,1-dimethyl-1H-benzo[e]indol-3-ium-3-yl)propanamide)ethyl(2,3-bis(oleoyloxy)propyl) phosphate] | 161100 L/mol/cm |
| CCCCCCCCCCCCCCCCCC(=O)OCC(COP(=O)([O-])OCCNC(=O)CC[N+]1=C(/C=C/C=C/C=C/C=C2/N(CCC(=O)NCCOP(=O)(O)OCC(COC(=O)CCCCCCCCCCCCCCCCC)OC(=O)CCCCCCCCCCCCCCCCC)c3ccc4ccccc4c3C2(C)C)C(C)(C)c2c1ccc1ccccc21)OC(=O)CCCCCCCCCCCCCCCCC (centres unmarked) [ICG-diDSPE, 2-(3-(2-((1E,3E,5E,7E)-7-(3-(3-((2-(((2,3-bis(stearoyloxy)propoxy)(hydroxy)phosphoryl)oxy)ethyl)amino)-3-oxopropyl)-1,1-dimethyl-1,3-dihydro-2H-benzo[e]indol-2-ylidene)hepta-1,3,5-trien-1-yl)-1,1-dimethyl-1H-benzo[e]indol-3-ium-3-yl)propanamide)ethyl (2,3-bis(stearoyloxy)propyl) phosphate] | 199840 L/mol/cm |
| CCCCCCCCCCCCCCCCCCNC(=O)CCN1/C(=C/C=C/C=C/C=C/C2=[N+](CCC(=O)NCCCCCCCCCCCCCCCCCC)c3ccc4ccccc4c3C2(C)C)C(C)(C)c2c1ccc1ccccc21 [ICG-diSA, 2-((1E,3E,5E,7E)-7-(1,1-dimethyl-3-(3-(octadecylamino)-3-oxopropyl)-1,3-dihydro-2H-benzo[e]indol-2-ylidene)hepta-1,3,5-trien-1-yl)-1,1-dimethyl-3-(3-(octadecylamino)-3-oxopropyl)-1H-benzo[e]indol-3-ium] | 177760 L/mol/cm |

From patent US20260117071A1, “ICG LIPID DERIVATIVE, AND LIPID MICROPARTICLES EACH CONTAINING SAME” (Eisai R&D Management Co., Ltd., priority 2022, published 2026)
